Test results as given in ChEMBL document CHEMBL3885881, “DrugMatrix”.

Species on record: Rattus norvegicus
Assay: DrugMatrix - Regimen: Daily Repeat
Assay type: toxicity, organism-based, Sprague-Dawley
Set-up: regimen Daily Repeat, gender Male, age 6-8 weeks
Details: in vivo, po, route oral GAVAGE, vehicle .5 % CMC; for ABSOLUTE BASOPHIL / ABSOLUTE EOSINOPHIL / ABSOLUTE LYMPHOCYTE / ABSOLUTE MONOCYTE / ABSOLUTE SEGMENTED NEUTROPHIL / BASOPHIL / EOSINOPHIL / ERYTHROCYTE COUNT / HEMATOCRIT / HEMOGLOBIN / LEUKOCYTE COUNT / LYMPHOCYTE / MEAN CORPUSCULAR HEMOGLOBIN / MEAN CORPUSCULAR HEMOGLOBIN CONCENTRATION / MEAN CORPUSCULAR VOLUME / MONOCYTE / NEUTROPHIL / NUCLEATED RED BLOOD CELLS / PLATELET COUNT: tissue Blood; for ALANINE AMINOTRANSFERASE / ALBUMIN / ALKALINE PHOSPHATASE / ASPARTATE AMINOTRANSFERASE / BLOOD UREA NITROGEN / CARBON DIOXIDE / CHLORIDE / CHOLESTEROL / CREATINE PHOSPHOKINASE / CREATININE / GLUCOSE / LACTATE DEHYDROGENASE / LIPASE / PHOSPHORUS / POTASSIUM / SODIUM / TOTAL BILIRUBIN / TOTAL PROTEIN / URIC ACID: tissue Plasma
[1] = 0.006 mg/kg, 72 h, dose level Low, time 3 day
[2] = 0.006 mg/kg, 120 h, dose level Low, time 5 day
[3] = 0.04 mg/kg, 72 h, dose level High, time 3 day
[4] = 0.04 mg/kg, 120 h, dose level High, time 5 day

## C=C1/C(=C\C=C2/CCC[C@]3(C)[C@@H]([C@H](C)CCCC(C)(C)O)CC[C@@H]23)C[C@@H](O)C[C@@H]1O [CALCITRIOL]
[1]
  ABSOLUTE BASOPHIL: 0 CELLS/uL
  ABSOLUTE EOSINOPHIL: 45.67 CELLS/uL
  ABSOLUTE LYMPHOCYTE: 10032.33 CELLS/uL
  ABSOLUTE MONOCYTE: 329.67 CELLS/uL
  ABSOLUTE SEGMENTED NEUTROPHIL: 1592.33 CELLS/uL
  BASOPHIL: 0%
  EOSINOPHIL: 0.33%
  ERYTHROCYTE COUNT: 5.61 x10E6/uL
  HEMATOCRIT: 34.07%
  HEMOGLOBIN: 13.17 G/DL
  LEUKOCYTE COUNT: 12 x10E3/uL
  LYMPHOCYTE: 84%
  MEAN CORPUSCULAR HEMOGLOBIN: 23.57 pg
  MEAN CORPUSCULAR HEMOGLOBIN CONCENTRATION: 38.7 G/DL
  MEAN CORPUSCULAR VOLUME: 60.93 fL
  MONOCYTE: 2.67%
  NEUTROPHIL: 13%
  NUCLEATED RED BLOOD CELLS: 0 /100WBC
  PLATELET COUNT: 1046.67 x10E3/uL
  ALANINE AMINOTRANSFERASE: 66.67 u/L
  ALBUMIN: 3.93 G/DL
  ALKALINE PHOSPHATASE: 358 u/L
  ASPARTATE AMINOTRANSFERASE: 93.67 u/L
  BLOOD UREA NITROGEN: 17 mg/dL
  CARBON DIOXIDE: 25.33 mmol/L
  CHLORIDE: 101.33 MEQ/L
  CHOLESTEROL: 73 mg/dL
  CREATINE PHOSPHOKINASE: 357 u/L
  CREATININE: 0.21 mg/dL
  GLUCOSE: 146.67 mg/dL
  LACTATE DEHYDROGENASE: 503.33 u/L
  LIPASE: 11 u/L
  PHOSPHORUS: 13.67 mg/dL
  POTASSIUM: 6.19 MEQ/L
  SODIUM: 143.5 MEQ/L
  TOTAL BILIRUBIN: 0.17 mg/dL
  TOTAL PROTEIN: 5.8 G/DL
  URIC ACID: 1.47 mg/dL
[2]
  ABSOLUTE BASOPHIL: 0 CELLS/uL
  ABSOLUTE EOSINOPHIL: 0 CELLS/uL
  ABSOLUTE LYMPHOCYTE: 11413 CELLS/uL
  ABSOLUTE MONOCYTE: 402.33 CELLS/uL
  ABSOLUTE SEGMENTED NEUTROPHIL: 1784.67 CELLS/uL
  BASOPHIL: 0%
  EOSINOPHIL: 0%
  ERYTHROCYTE COUNT: 5.87 x10E6/uL
  HEMATOCRIT: 34.33%
  HEMOGLOBIN: 13.57 G/DL
  LEUKOCYTE COUNT: 13.6 x10E3/uL
  LYMPHOCYTE: 84%
  MEAN CORPUSCULAR HEMOGLOBIN: 23.17 pg
  MEAN CORPUSCULAR HEMOGLOBIN CONCENTRATION: 39.53 G/DL
  MEAN CORPUSCULAR VOLUME: 58.53 fL
  MONOCYTE: 3%
  NEUTROPHIL: 13%
  NUCLEATED RED BLOOD CELLS: 0 /100WBC
  PLATELET COUNT: 1088.67 x10E3/uL
  ALANINE AMINOTRANSFERASE: 57.33 u/L
  ALBUMIN: 4.37 G/DL
  ALKALINE PHOSPHATASE: 445.33 u/L
  ASPARTATE AMINOTRANSFERASE: 99.67 u/L
  BLOOD UREA NITROGEN: 19 mg/dL
  CARBON DIOXIDE: 31.33 mmol/L
  CHLORIDE: 95.33 MEQ/L
  CHOLESTEROL: 61 mg/dL
  CREATINE PHOSPHOKINASE: 435 u/L
  CREATININE: 0.17 mg/dL
  GLUCOSE: 145 mg/dL
  LACTATE DEHYDROGENASE: 606.67 u/L
  LIPASE: 10.33 u/L
  PHOSPHORUS: 11.6 mg/dL
  POTASSIUM: 5.78 MEQ/L
  SODIUM: 141.37 MEQ/L
  TOTAL BILIRUBIN: 0.13 mg/dL
  TOTAL PROTEIN: 6.37 G/DL
  URIC ACID: 1.6 mg/dL
[3]
  ABSOLUTE BASOPHIL: 0 CELLS/uL
  ABSOLUTE EOSINOPHIL: 117 CELLS/uL
  ABSOLUTE LYMPHOCYTE: 9651 CELLS/uL
  ABSOLUTE MONOCYTE: 117 CELLS/uL
  ABSOLUTE SEGMENTED NEUTROPHIL: 6315 CELLS/uL
  BASOPHIL: 0%
  EOSINOPHIL: 0.67%
  ERYTHROCYTE COUNT: 6 x10E6/uL
  HEMATOCRIT: 37.07%
  HEMOGLOBIN: 14.33 G/DL
  LEUKOCYTE COUNT: 16.2 x10E3/uL
  LYMPHOCYTE: 57.67%
  MEAN CORPUSCULAR HEMOGLOBIN: 23.93 pg
  MEAN CORPUSCULAR HEMOGLOBIN CONCENTRATION: 38.67 G/DL
  MEAN CORPUSCULAR VOLUME: 62 fL
  MONOCYTE: 0.67%
  NEUTROPHIL: 41%
  NUCLEATED RED BLOOD CELLS: 0 /100WBC
  PLATELET COUNT: 1193.33 x10E3/uL
  ALANINE AMINOTRANSFERASE: 118.67 u/L
  ALBUMIN: 3.1 G/DL
  ALKALINE PHOSPHATASE: 333 u/L
  ASPARTATE AMINOTRANSFERASE: 517.33 u/L
  BLOOD UREA NITROGEN: 95 mg/dL
  CARBON DIOXIDE: 24 mmol/L
  CHLORIDE: 100 MEQ/L
  CHOLESTEROL: 98.67 mg/dL
  CREATINE PHOSPHOKINASE: 1977.67 u/L
  CREATININE: 1.67 mg/dL
  GLUCOSE: 129.67 mg/dL
  LACTATE DEHYDROGENASE: 1234.67 u/L
  LIPASE: 10 u/L
  PHOSPHORUS: 17.23 mg/dL
  POTASSIUM: 5.62 MEQ/L
  SODIUM: 140.85 MEQ/L
  TOTAL BILIRUBIN: 0.2 mg/dL
  TOTAL PROTEIN: 5.9 G/DL
  URIC ACID: 1.93 mg/dL
[4]
  ABSOLUTE BASOPHIL: 0 CELLS/uL
  ABSOLUTE EOSINOPHIL: 37.4 CELLS/uL
  ABSOLUTE LYMPHOCYTE: 15678.4 CELLS/uL
  ABSOLUTE MONOCYTE: 350.8 CELLS/uL
  ABSOLUTE SEGMENTED NEUTROPHIL: 1413.4 CELLS/uL
  BASOPHIL: 0%
  EOSINOPHIL: 0.2%
  ERYTHROCYTE COUNT: 6.14 x10E6/uL
  HEMATOCRIT: 35.74%
  HEMOGLOBIN: 13.9 G/DL
  LEUKOCYTE COUNT: 17.48 x10E3/uL
  LYMPHOCYTE: 89.8%
  MEAN CORPUSCULAR HEMOGLOBIN: 22.62 pg
  MEAN CORPUSCULAR HEMOGLOBIN CONCENTRATION: 38.88 G/DL
  MEAN CORPUSCULAR VOLUME: 58.22 fL
  MONOCYTE: 2%
  NEUTROPHIL: 8%
  NUCLEATED RED BLOOD CELLS: 0.2 /100WBC
  PLATELET COUNT: 1031.8 x10E3/uL
  ALANINE AMINOTRANSFERASE: 34.8 u/L
  ALBUMIN: 3.62 G/DL
  ALKALINE PHOSPHATASE: 233.8 u/L
  ASPARTATE AMINOTRANSFERASE: 68.4 u/L
  BLOOD UREA NITROGEN: 19.4 mg/dL
  CARBON DIOXIDE: 30.2 mmol/L
  CHLORIDE: 98.6 MEQ/L
  CHOLESTEROL: 99.6 mg/dL
  CREATINE PHOSPHOKINASE: 347.4 u/L
  CREATININE: 0.2 mg/dL
  GLUCOSE: 143.4 mg/dL
  LACTATE DEHYDROGENASE: 272.4 u/L
  LIPASE: 9.2 u/L
  PHOSPHORUS: 10.48 mg/dL
  POTASSIUM: 5.5 MEQ/L
  SODIUM: 142.72 MEQ/L
  TOTAL BILIRUBIN: 0.1 mg/dL
  TOTAL PROTEIN: 5.84 G/DL
  URIC ACID: 1.34 mg/dL
